The source of these data is ChEMBL document CHEMBL1130639, “Synthesis of anti-rheumatic agent epoxyquinomicin B” (Bioorg Med Chem Lett, 1998).

The data set in a line: Lethal dose upon intraperitoneal administration. Format: ADME. The following applies: ip.

For orientation: LD50 means the dose at which mortality reaches 50%. A higher LD50 goes with lower toxicity. `O=C(NC1=CC(=O)[C@]2(CO)O[C@@H]2C1=O)c1ccccc1O` showed a median lethal dose (LD50) of 50 mg/kg.
